Source: patent US20240099989A1, “AGENT FOR PREVENTING OR IMPROVING PERIPHERAL NEUROPATHY” (KINKI UNIVERSITY, priority 2021, published 2024)

Key:
[1] = as is well known; except diarrhea no side effects due to overdose observed; cited from earlier work
[2] = test system: Peripheral Neuropathy in a Mouse Caused by Bortezomib; type: in vivo, Balb/c mice; conditions: 1 mg/kg bortezomib + 100 mg/kg orally daily from Day 6 (therapy); from Day 12 onwards
Source text: (§1) Six to seven-week-old female Balb/c mice were used for the tests. All the mice were acclimated for seven days after arrival. Then, the mice were grouped into the following four groups: a control group, a group receiving bortezomib, a group receiving xylitol, and a group receiving bortezomib and xylitol (a group receiving bortezomib+xylitol). Each group consisted of five mice.
On Day 8 of acclimation, the mice in the group receiving bortezomib and the group receiving bortezomib+xylitol were intraperitoneally administered with bortezomib at a dose of 1 mg/kg. This day was designated as Day 0 of administration. Thereafter, these mice were intraperitoneally administered with bortezomib at a daily dose of 1 mg/kg on Day 7 and Day 14.
The mice in the group receiving xylitol and the group receiving bortezomib+xylitol were orally administered with xylitol at a dose of 5 mg/kg daily from Day 0.
The mice in the four groups described in (10) of the present example (Example 1) were placed in a cage, and the avoidance response frequency (score) was measured by pressing a filament with a bending force of 0.16 g against the back of the hind paw.
as §1, with “tests as with Example 1.” for “tests.”, “mice. […]” for “mice.”
For the mice in the four groups described in (12) of the present example (Example 2), the avoidance response frequency (score) was measured by pressing a filament with a bending force of 0.16 g against the back of the hind paw. […]
The mice in the four groups described in (10) of the present example (Example 3) were placed in a cage, and the avoidance response frequency (score) was measured by pressing a filament with a bending force of 0.16 g against the back of the hind paw. […]

Row | SMILES | safety for the human body [1] | avoidance response score [2]
1 | OC[C@H](O)[C@H](O)[C@H](O)[C@@H](O)CO [L-talitol] | safe for the human body | maintained a score clearly lower than that of the group receiving bortezomib
2 | OC[C@@H](O)[C@H](O)CO [D-threitol] | safe for the human body | maintained a score clearly lower than that of the group receiving bortezomib
3 | OC[C@@H](O)[C@H](O)[C@@H](O)CO [xylitol] | safe for the human body | maintained a score clearly lower than that of the group receiving bortezomib
